Experimental data from paper PMC10023787, “Trio-pharmacophore DNA-encoded chemical library for simultaneous selection of fragments and linkers” (Nature Communications, 2023).

Target: T1, bovine carbonic anhydrase II (CAII) (Bos taurus, UniProt P00921)
T1 construct: purchased Sigma-Aldrich C7749
Experiment: Carbonic anhydrase II inhibition assay (esterase activity on p-nitrophenyl acetate)
Assay type: biochemical
Settings: for remaining activity at 0.0001024 µM: 0.1024 nM compound; for remaining activity at 0.0001024 µM / remaining activity at 0.000512 µM / remaining activity at 0.00256 µM / remaining activity at 0.064 µM / remaining activity at 0.32 µM / remaining activity at 1.6 µM / remaining activity at 8 µM / remaining activity at 40 µM / remaining activity at 200 µM: source data of Fig. 2c, read-out: Normalized CA II Activity (Mean); for remaining activity at 0.000512 µM: 0.512 nM compound; for remaining activity at 0.00256 µM: 2.56 nM compound; for remaining activity at 0.064 µM: 64 nM compound; for remaining activity at 0.32 µM: 320 nM compound; for remaining activity at 1.6 µM: 1600 nM compound; for remaining activity at 8 µM: 8000 nM compound; for remaining activity at 40 µM: 40000 nM compound; for remaining activity at 200 µM: 200000 nM compound
Method: CAII inhibition assay was performed to measure the inhibitory effect of re-synthesized CBS-conjugates. The esterase activity of CAII with a chromogenic substrate p-nitrophenyl acetate (pNPA) was measured. The rates of hydrolysis were determined by an increase of absorption at 410 nm after incubating different compounds with CAII. Re-synthesized compounds were diluted in a serial spanning mM to μM concentrations. […] 5 µl of pNPA (50 mM in 20% DMSO) was added to the plate right before the measurement. The absorption was measured at 37 °C each 10 sec for 15 min using a Beckman Coulter’s Paradigm Detection Platform (Brea, USA). The initial Vmax was obtained from the increase of absorption and the Vmax was plotted against the inhibitor concentrations and logistic fitting was performed to obtain IC50 values using Origin 2019b (OriginLab) software.

T1 sequence (P00921 whole entry): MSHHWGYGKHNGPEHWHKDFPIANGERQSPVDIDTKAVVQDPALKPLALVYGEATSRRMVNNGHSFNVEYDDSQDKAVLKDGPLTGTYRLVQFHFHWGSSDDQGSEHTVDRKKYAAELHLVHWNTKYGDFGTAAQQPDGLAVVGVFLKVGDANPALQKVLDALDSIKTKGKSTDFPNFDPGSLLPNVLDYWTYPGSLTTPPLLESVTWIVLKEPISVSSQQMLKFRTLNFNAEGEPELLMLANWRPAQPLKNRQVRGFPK

remaining activity at 0.0001024 µM	remaining activity at 0.000512 µM	remaining activity at 0.00256 µM	remaining activity at 0.064 µM	remaining activity at 0.32 µM	remaining activity at 1.6 µM	remaining activity at 8 µM	remaining activity at 40 µM	remaining activity at 200 µM	IC50 (mean ± SE, three independent measurements, n.d: not detected)	Compound
96.8%	89%	89.3%	89.8%	90.3%	65%	42.3%	33.8%	9.19%	–	NS(=O)(=O)c1ccc(NC(=O)c2ccc(-n3cc(CCC(=O)NCCNC(=O)/C=C/c4ccc(-c5ccccc5C(F)(F)F)o4)nn3)cc2)cc1 [Compound C-4]
101%	100%	96.7%	90.2%	78.3%	56.6%	33.3%	19.1%	11.8%	2020 ± 310 nM	NS(=O)(=O)c1ccc(NC(=O)COCC(=O)NCCNC(=O)/C=C/c2ccc(-c3ccccc3C(F)(F)F)o2)cc1 [Compound C-5]
